Assay [1] deals with NCI panel of 60 tumor cell lines. The assay is described as follows: NCI SRB growth inhibition, whole panel mean (single dose 10 µM / five-dose). Type of assay: cell-based, human. Particulars: Homo sapiens. As for the experimental part:
Screening of cytotoxic activity against a panel of sixty human tumor cell lines The selected compounds by NCI were evaluated for their anticancer activity in a two- stage process. […] Then, the output from the single dose screen is reported as a mean graph. […] Assay protocol. […] For a typical screening experiment, cells are inoculated into 96 well microtiter plates in 100 µL at plating densities ranging from 5000 to 40,000 cells/well depending on the doubling time of individual cell lines. […] After 24 h, two plates of each cell line are fixed in situ with TCA, to represent a measurement of the cell population for each cell line at the time of drug addition (Tz). The experimental drugs are solubilized in dimethyl sulfoxide at 400-fold the desired final maximum test concentration and stored frozen prior to use. At the time of drug addition, an aliquot of frozen concentrate is thawed and diluted to twice the desired final maximum test concentration with complete medium containing 50 µg/mL gentamicin. Additional four, 10-fold or ½ log serial dilutions are made to provide a total of five drug concentrations plus control. Aliquots of 100 mL of these different drug dilutions are added to the appropriate microtiter wells already containing […] of medium, resulting in the required final drug concentrations. […] For adherent cells, the assay is terminated by the addition of cold TCA. […] The supernatant is discarded, and the plates are washed five times with tap water and air dried. Sulforhodamine B (SRB) solution ([…]) at 0.4% (w/v) in 1% acetic acid is added to each well, and plates are incubated for 10 min at room temperature. After staining, unbound dye is removed by washing five times with 1% acetic acid and the plates are air dried. […] Using the seven absorbance measurements [time zero, (Tz), control growth, (C), and test growth in the presence of drug at the five concentration levels (Ti)], the percentage growth is calculated at each of the drug concentrations levels. Percentage growth inhibition is calculated as: [(Ti Tz)/(C–Tz)] x 100 for concentrations for which Ti>/=Tz and [(Ti-Tz)/Tz] x 100 for concentrations for which Ti < Tz. Three dose response parameters are calculated for each experimental agent. […] The drug concentration resulting in total growth inhibition (TGI) is calculated from Ti = Tz. […] Values are calculated for each of these three parameters if the level of activity is reached; however, if the effect is not reached or is exceeded, the value for that parameter is expressed as greater or less than the maximum or minimum concentration tested.

The target of a further assay is T1, VEGFR-2 (Homo sapiens, UniProt P35968).
T1 construct: purchased BPS Biosciences 40325
T1 sequence (P35968 20-1356): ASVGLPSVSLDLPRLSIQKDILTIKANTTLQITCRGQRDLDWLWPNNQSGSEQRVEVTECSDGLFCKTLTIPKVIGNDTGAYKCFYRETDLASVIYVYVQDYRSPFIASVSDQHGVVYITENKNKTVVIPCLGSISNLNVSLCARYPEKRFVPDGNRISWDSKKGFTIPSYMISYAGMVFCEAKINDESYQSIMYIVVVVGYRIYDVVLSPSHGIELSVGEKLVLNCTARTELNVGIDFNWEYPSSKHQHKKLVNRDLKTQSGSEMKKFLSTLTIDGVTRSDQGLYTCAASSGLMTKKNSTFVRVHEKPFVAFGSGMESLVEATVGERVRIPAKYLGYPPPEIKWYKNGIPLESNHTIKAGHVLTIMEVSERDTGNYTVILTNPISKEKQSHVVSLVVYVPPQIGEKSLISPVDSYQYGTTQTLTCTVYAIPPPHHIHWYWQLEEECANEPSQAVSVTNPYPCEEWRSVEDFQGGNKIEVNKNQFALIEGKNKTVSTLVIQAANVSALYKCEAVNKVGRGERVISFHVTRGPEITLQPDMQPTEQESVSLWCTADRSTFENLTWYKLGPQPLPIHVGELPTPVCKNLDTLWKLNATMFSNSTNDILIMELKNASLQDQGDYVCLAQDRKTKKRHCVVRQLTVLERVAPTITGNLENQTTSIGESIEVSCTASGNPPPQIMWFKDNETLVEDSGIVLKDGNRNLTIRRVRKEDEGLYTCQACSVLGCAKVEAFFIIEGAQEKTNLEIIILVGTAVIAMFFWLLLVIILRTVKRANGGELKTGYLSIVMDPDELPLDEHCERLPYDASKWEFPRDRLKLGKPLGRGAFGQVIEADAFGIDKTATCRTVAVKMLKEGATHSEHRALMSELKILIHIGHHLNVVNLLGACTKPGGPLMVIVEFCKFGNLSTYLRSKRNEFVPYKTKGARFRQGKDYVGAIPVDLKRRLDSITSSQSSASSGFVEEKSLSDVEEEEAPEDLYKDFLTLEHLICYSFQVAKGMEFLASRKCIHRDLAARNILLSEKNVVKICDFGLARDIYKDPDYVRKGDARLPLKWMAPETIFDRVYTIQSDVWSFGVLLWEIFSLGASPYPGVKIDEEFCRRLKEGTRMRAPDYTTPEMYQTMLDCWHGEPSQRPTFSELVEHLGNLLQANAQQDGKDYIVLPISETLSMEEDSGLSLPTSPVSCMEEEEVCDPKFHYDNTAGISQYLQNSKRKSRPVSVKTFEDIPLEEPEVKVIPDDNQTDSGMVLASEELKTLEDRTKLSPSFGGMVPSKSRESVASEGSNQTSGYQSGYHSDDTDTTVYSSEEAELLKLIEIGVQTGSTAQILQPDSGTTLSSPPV
The assay is described as follows: VEGFR-2 kinase assay kit (BPS), Kinase-Glo Max luminescence. Type of assay: biochemical. To be noted: VEGFR-2, single dose 10 µM, duplicate, mean ± SD. As for the experimental part: 2. Biochemical kinase assay procedure
The inhibitory activity against different kinases was determined using kinase kits […]
from BPS Biosciences and kinase-Glo Max luminescence kinase assay kit (Promega).
The assay was carried out according to the protocol provided by the manufacturer. A stock solution of the synthesized derivatives in 100% DMSO was prepared. Subsequently, the compounds were diluted to 10% DMSO.
A master mixture was prepared according to the number of wells. For VEGFR-2 and FGFR-1 biochemical assays each well include 6 μl of 5x Kinase Buffer 1 + 1 μl of 500 μM ATP + 1 μl of PTK Substrate (Poly-Glu,Tyr 4:1) (10 mg/ml) + 17 μl of distilled water. For BRAF assay each well include 6 μl of 5x Kinase Buffer 1 + 1 μl of ATP (500 μM) + 10 μl of 5X Raf substrate + 8 μl of distilled water. 1x Kinase buffer 1 was prepared by mixing 600 μl of 5x Kinase Buffer 1 with 2400 μl water to give 3 mL. Kinases were thawed on ice and were diluted with 1x Kinase Buffer 1.
To start the biochemical reaction, 25 µL of the master mixture was added to each well in 96 well plate. 5 µL of 10% DMSO was added to positive control wells and blank wells. 5 µL of diluted inhibitor was added to each well labelled with the test inhibitor so that the final concentration of DMSO is 1% in all reactions. Then 20 µL of (1 ng / μl) in case of VEGFR-2 and FGFR-1 or (2.5 ng/μl) in case of BRAF in 1x kinase buffer was added to positive control wells and wells labelled with the inhibitor, while 20 µL 1x kinase buffer 1 was added to the […]
The plate was incubated at 30 °C for 45 min. Subsequently, 50 μl of Kinase-Glo Max luminescence reagent was added to each well and the plate was covered with aluminum foil and incubated at room temperature 15 min. Finally, the luminescence was recorded using multimode microplate reader. Kinase activity assays were performed in duplicate at each […]
The luminescence data were analyzed as follows. The difference between luminescence intensities in the absence of kinase (Lut) and in the presence of kinase (Luc) was defined as 100 % activity (Lut – Luc). Using luminescence signal (Lu) in the presence of the compound, % activity was calculated as: % activity = {(Lut - Lu)/(Lut - Luc)}×100%. The […]
concentration of the test compounds required to reduce the kinase activity by 50% was determined from dose-response curves and recorded as their IC50. […]
A general note: In Kinase-Glo more light means more ATP remaining.

The next assay concerns OVCAR-4. The assay is described as follows: NCI SRB growth inhibition (single dose 10 µM / five-dose). The class given is cell-based, human. To be noted: Homo sapiens; for inhibition at 10 µM: OVCAR-4 (Ovarian cancer), read-out: GI%. The gist of the method: (§1)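 Cytotoxicity in the NCI panel of sixty human tumour lines was measured by sulforhodamine B protein staining. Each agent was tested in DMSO-derived dilutions at five concentrations, and TGI was read where treated absorbance equalled time-zero absorbance.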

In the next assay the test system is M14. The description is as above. The class given is cell-based, human. To be noted: Homo sapiens; for inhibition at 10 µM: M14 (Melanoma), read-out: GI%. Put shortly: as §1
In another assay the test system is DU-145. The description is as above. Type of assay: cell-based, human. To be noted: Homo sapiens; for inhibition at 10 µM: DU-145 (Prostate cancer), read-out: GI%. Put shortly:
as §1

The next assay concerns SF-295. The description is as above. The class given is cell-based, human. To be noted: Homo sapiens; for inhibition at 10 µM: SF-295 (CNS cancer), read-out: GI%. Put shortly:
as §1

The next assay has as its system UACC-62. The assay is described as above. Type of assay: cell-based, human. Particulars: Homo sapiens; for inhibition at 10 µM: UACC-62 (Melanoma), read-out: GI%. The gist of the method: as §1
A further assay deals with HL-60(TB). The description is as above. Type of assay: cell-based, human. Particulars: Homo sapiens; for inhibition at 10 µM: HL-60(TB) (Leukemia), read-out: GI%. The gist of the method:
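Two-stage NCI-60 screen: single-dose test first, then five-dose testing. Growth is scored by sulforhodamine B staining of TCA-fixed cells relative to a time-zero plate, and TGI is taken where Ti = Tz.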

The test system of a further assay is CAKI-1. The assay is described as above. Type of assay: cell-based, human. To be noted: Homo sapiens; for inhibition at 10 µM: CAKI-1 (Renal cancer), read-out: GI%. Put shortly: as §1
A further assay has as its system LOX IMVI. The description is as above. The class given is cell-based, human. To be noted: Homo sapiens; for inhibition at 10 µM: LOX IMVI (Melanoma), read-out: GI%. The gist of the method:
as §1

Setting [2] is: mean over NCI 60 cell lines, > 100% = lethal effect, read-out: mean growth inhibition % (GI%).
[3] abbreviates: mean over NCI panel of 60 tumor cell lines, read-out: Mean growth inhibition %.

The results in this text go back to paper PMC10893631, “Receptor-based pharmacophore modeling, molecular docking, synthesis and biological evaluation of novel VEGFR-2, FGFR-1, and BRAF multi-kinase inhibitors” (BMC Chemistry, 2024).

Where two headings read alike, the source gives them in different places.

In the case of `O=C(NN=Cc1cccc(O)c1)c1ccc2[nH]c(-c3ccccc3)nc2c1` [8b, N'-(3-Hydroxybenzylidene)-2-phenyl-1H-benzo[d]imidazole-5-carbohydrazide], the inhibition at 10 µM in assay [1] (setting [2]) is 8.49%; in [1] (setting [3]), 8.49%; against VEGFR-2 it was 23.8 ± 1.47%; in the assay on OVCAR-4 it was 12.4%; with M14, below 5%; in the assay with DU-145, below 5%. For the same compound, the inhibition at 10 µM with SF-295 was below 5%; with UACC-62 it was below 5%; with HL-60(TB) it was 14.4%; in the assay with CAKI-1 it was 9.41%; in the assay on LOX IMVI it was 7.43%.

`COc1cccc(C=NNC(=O)c2ccc3[nH]c(-c4ccccc4)nc3c2)c1` [8c, N'-(3-Methoxybenzylidene)-2-phenyl-1H-benzo[d]imidazole-5-carbohydrazide]: the inhibition at 10 µM is 20.7% in assay [1] (setting [2]); 20.7% in [1] (setting [3]); 18.5 ± 0.95% against VEGFR-2; 20.1% in the assay on OVCAR-4; 8.28% in the assay on M14; 18.4% in the assay with DU-145. Moreover, the inhibition at 10 µM is 18.5% in the assay with SF-295; 14.7% with UACC-62; 38.1% in the assay with HL-60(TB); 10% in the assay with CAKI-1; below 5% in the assay with LOX IMVI.

As usually defined, the GI50 is the concentration that inhibits growth by half. In the case of `COc1cccc(C=NNC(=O)c2ccc3[nH]c(-c4ccccc4)nc3c2)c1O` [8d, N'-(2-hydroxy-3-methoxybenzylidene)-2-phenyl-1H-benzo[d]imidazole-5-carbohydrazide], the inhibition at 10 µM in [1] (setting [2]) is 92.5%; in assay [1] (setting [3]) it was 92.5%; against VEGFR-2 it was 53.8 ± 2.62%; in the assay on OVCAR-4, above 100%; in the assay with M14, above 100%; in the assay on DU-145, 79.7%. Further, the inhibition at 10 µM in the assay on SF-295 turned out to be 83.2%; in the assay on UACC-62, 99.5%; with HL-60(TB), 90%; in the assay on CAKI-1, 91.6%; in the assay on LOX IMVI it was 92.9%. The GI50 in assay [1] (mean over NCI cancer cell lines, five-dose) was 2.62 µM; in the assay on OVCAR-4 (OVCAR-4, Ovarian cancer, five-dose) it was 1.85 µM; in the assay on M14 (M14, Melanoma, five-dose) it was 1.57 µM; in the assay on DU-145 (DU-145, Prostate cancer, five-dose), 3.05 µM; in the assay with SF-295 (SF-295, CNS cancer, five-dose) it was 2.93 µM; in the assay on UACC-62 (UACC-62, Melanoma, five-dose) it was 1.22 µM. The GI50 amounted to 2.42 µM with HL-60(TB) (HL-60(TB), Leukemia, five-dose); 2.68 µM in the assay on CAKI-1 (CAKI-1, Renal cancer, five-dose); 1.34 µM with LOX IMVI (LOX IMVI, Melanoma, five-dose).

As for `COc1ccc(C=NNC(=O)c2ccc3[nH]c(-c4ccccc4)nc3c2)cc1O` [8e, N'-(3-Hydroxy-4-methoxybenzylidene)-2-phenyl-1H-benzo[d]imidazole-5-carbohydrazide], the inhibition at 10 µM in assay [1] (setting [2]) was 16.8%; in [1] (setting [3]) it was 16.8%; against VEGFR-2 it was 36.4 ± 1.91%; in the assay on OVCAR-4, below 5%; with M14 it was 19.7%; with DU-145, below 5%. In addition, the inhibition at 10 µM in the assay on SF-295 is 10.9%; with UACC-62, 18.7%; in the assay with HL-60(TB), 24.7%; in the assay on CAKI-1, 17.6%; in the assay on LOX IMVI, below 5%.

Turning to `COc1ccc(OC)c(C=NNC(=O)c2ccc3[nH]c(-c4ccccc4)nc3c2)c1` [8f, N'-(2,5-Dimethoxybenzylidene)-2-phenyl-1H-benzo[d]imidazole-5-carbohydrazide], the inhibition at 10 µM turned out to be 33.7% in [1] (setting [2]); 33.7% in [1] (setting [3]); 58.3 ± 2.98% against VEGFR-2; 37.8% with OVCAR-4; 34.4% in the assay on M14; 18.4% in the assay with DU-145. Also, the inhibition at 10 µM is 31.4% in the assay with SF-295; 35.5% with UACC-62; 36.3% in the assay on HL-60(TB); 41.5% in the assay with CAKI-1; 62.5% in the assay on LOX IMVI.

Regarding `COc1cc(C=NNC(=O)c2ccc3[nH]c(-c4ccccc4)nc3c2)cc(OC)c1OC` [8g, 2-Phenyl-N'-(3,4,5-trimethoxybenzylidene)-1H-benzo[d]imidazole-5-carbohydrazide], the inhibition at 10 µM in assay [1] (setting [2]) is 36%; in [1] (setting [3]), 36%; on VEGFR-2, 47.9 ± 3.53%; in the assay on OVCAR-4, 21.9%; with M14, 43.3%; in the assay on DU-145, 17.1%. Besides, the inhibition at 10 µM was found to be 54.1% with SF-295; 70.4% in the assay on UACC-62; 17.1% in the assay with HL-60(TB); 49.7% with CAKI-1; 56.5% in the assay on LOX IMVI.
